What was measured:
Format in all cases: cell-based
[1] = tested on: Staphylococcus aureus 489; assay: MIC, standard broth micro-dilution assay, SA 489
Method: (§1) The antibacterial efficacy of the present compounds is illustrated by Table II. The minimal inhibitory concentrations (MICs) were determined using a standard broth micro-dilution assay.

[2] = tested on: Staphylococcus epidermidis 270; assay: MIC, standard broth micro-dilution assay, SE 270
Method: as §1

[3] = tested on: Streptococcus pyogenes C203; assay: MIC, standard broth micro-dilution assay, SPY C203
Method: as §1

[4] = tested on: Staphylococcus haemolyticus 415; assay: MIC, standard broth micro-dilution assay, SH 415
Method: as §1

[5] = tested on: Staphylococcus haemolyticus 105; assay: MIC, standard broth micro-dilution assay, SH 105
Method: as §1

[6] = tested on: Streptococcus pneumoniae P1; assay: MIC, standard broth micro-dilution assay, SPN P1
Method: as §1

[7] = tested on: Staphylococcus aureus 447; assay: MIC, standard broth micro-dilution assay, SA 447
Method: as §1

[8] = tested on: Staphylococcus aureus 446; assay: MIC, standard broth micro-dilution assay, SA 446
Method: as §1

[9] = tested on: Enterococcus faecium and faecalis (RESISTANT); conditions: geometric mean of 4-6 isolates
Method: as §1

[10] = tested on: Enterococcus faecium and faecalis (SENSITIVE); conditions: geometric mean of 4-6 isolates
Method: as §1

Structure (SMILES) | Minimal Inhibitory Concentration (MIC) SA 489 [1] | Minimal Inhibitory Concentration (MIC) SE 270 [2] | Minimal Inhibitory Concentration (MIC) SPY C203 [3] | Minimal Inhibitory Concentration (MIC) SH 415 [4] | Minimal Inhibitory Concentration (MIC) SH 105 [5] | Minimal Inhibitory Concentration (MIC) SPN P1 [6] | Minimal Inhibitory Concentration (MIC) SA 447 [7] | Minimal Inhibitory Concentration (MIC) SA 446 [8] | Minimal Inhibitory Concentration (MIC) RESISTANT [9] | Minimal Inhibitory Concentration (MIC) SENSITIVE [10]
CC(C)CC(C(=O)NC1C(=O)NC(CC(N)=O)C(=O)NC2C(=O)NC3C(=O)NC(C(=O)NC(C(=O)O)c4cc(O)cc(O)c4-c4cc3ccc4O)C(OC3CC(C)(N)C(O)C(C)O3)c3ccc(c(Cl)c3)Oc3cc2cc(c3OC2OC(CO)C(O)C(O)C2OC2CC(C)(N)C(O)C(C)O2)Oc2ccc(cc2Cl)C1O)N(C)C(=S)Nc1cccc2ccccc12 (stereo not shown) [Example 5, N^LEU -(1-NAPHTHYLTHIOCARBAMOYL)A82846B] | > 64 | 32 | 0.5 | > 64 | 64 | 1 | 8 | 8 | > 128 | 9.5
CC(C)CC(C(=O)NC1C(=O)NC(CC(N)=O)C(=O)NC2C(=O)NC3C(=O)NC(C(=O)NC(C(=O)O)c4cc(O)cc(O)c4-c4cc3ccc4O)C(OC3CC(C)(N)C(O)C(C)O3)c3ccc(c(Cl)c3)Oc3cc2cc(c3OC2OC(CO)C(O)C(O)C2OC2CC(C)(NCc3ccc(Cl)cc3)C(O)C(C)O2)Oc2ccc(cc2Cl)C1O)N(C)C(=S)Nc1cccc2ccccc12 (stereo not shown) [Example 6, N^LEU -(1-NAPHTHYLTHIOCARBAMOYL)-N^DISACC -(p-CHLOROBENZYL)A82846B] | 16 | 64 | ≤ 0.06 | 8 | 4 | ≤ 0.06 | 4 | 2 | 128 | 5
CC(C)CC(C(=O)NC1C(=O)NC(CC(N)=O)C(=O)NC2C(=O)NC3C(=O)NC(C(=O)NC(C(=O)O)c4cc(O)cc(O)c4-c4cc3ccc4O)C(OC3CC(C)(N)C(O)C(C)O3)c3ccc(c(Cl)c3)Oc3cc2cc(c3OC2OC(CO)C(O)C(O)C2OC2CC(C)(NCc3ccc(Oc4ccccc4)cc3)C(O)C(C)O2)Oc2ccc(cc2Cl)C1O)N(C)C(=S)Nc1cccc2ccccc12 (stereo not shown) [Example 7, N^LEU -(1-NAPHTHYLTHIOCARBAMOYL)-N^DISACC -(p-PHENOXYBENZYL)A82846B] | 2 | 0.5 | 0.25 | 2 | 4 | ≤ 0.06 | 1 | 4 | 19 | 3
CC(C)CC(C(=O)NC1C(=O)NC(CC(N)=O)C(=O)NC2C(=O)NC3C(=O)NC(C(=O)NC(C(=O)O)c4cc(O)cc(O)c4-c4cc3ccc4O)C(OC3CC(C)(N)C(O)C(C)O3)c3ccc(c(Cl)c3)Oc3cc2cc(c3OC2OC(CO)C(O)C(O)C2OC2CC(C)(NCc3ccc(Cl)cc3)C(O)C(C)O2)Oc2ccc(cc2Cl)C1O)N(C)C(=S)Nc1ccc(Cl)cc1 (stereo not shown) [Example 12, N^LEU -((p-CHLOROPHENYL)-THIOCARBAMOYL)-N^DISACC -(p-CHLOROBENZYL)A82846B] | 1 | 1 | ≤ 0.06 | 4 | 2 | ≤ 0.06 | 1 | 4 | 128 | 3.5
COc1ccc(NC(=S)N(C)C(CC(C)C)C(=O)NC2C(=O)NC(CC(N)=O)C(=O)NC3C(=O)NC4C(=O)NC(C(=O)NC(C(=O)O)c5cc(O)cc(O)c5-c5cc4ccc5O)C(OC4CC(C)(N)C(O)C(C)O4)c4ccc(c(Cl)c4)Oc4cc3cc(c4OC3OC(CO)C(O)C(O)C3OC3CC(C)(NCc4ccc(Cl)cc4)C(O)C(C)O3)Oc3ccc(cc3Cl)C2O)cc1 (stereo not shown) [Example 13, N^LEU -((p-METHOXYPHENYL)-THIOCARBAMOYL)-N^DISACC -(p-CHLOROBENZYL)A82846B] | 2 | 2 | ≤ 0.06 | 8 | 4 | ≤ 0.06 | 2 | 4 | > 128 | 3.5
CC(C)CC(C(=O)NC1C(=O)NC(CC(N)=O)C(=O)NC2C(=O)NC3C(=O)NC(C(=O)NC(C(=O)O)c4cc(O)cc(O)c4-c4cc3ccc4O)C(OC3CC(C)(N)C(O)C(C)O3)c3ccc(c(Cl)c3)Oc3cc2cc(c3OC2OC(CO)C(O)C(O)C2OC2CC(C)(N)C(O)C(C)O2)Oc2ccc(cc2Cl)C1O)N(C)C(=S)Nc1ccc([N+](=O)[O-])cc1 (stereo not shown) [Example 14, N^LEU -((p-NITROPHENYL)-THIOCARBAMOYL)A82846B] | 2 | 4 | ≤ 0.06 | 32 | 16 | 0.25 | 4 | 2 | > 128 | 3.5
CC(C)CC(C(=O)NC1C(=O)NC(CC(N)=O)C(=O)NC2C(=O)NC3C(=O)NC(C(=O)NC(C(=O)O)c4cc(O)cc(O)c4-c4cc3ccc4O)C(OC3CC(C)(N)C(O)C(C)O3)c3ccc(c(Cl)c3)Oc3cc2cc(c3OC2OC(CO)C(O)C(O)C2OC2CC(C)(N)C(O)C(C)O2)Oc2ccc(cc2Cl)C1O)N(C)C(=S)Nc1ccc(N(C)C)cc1 (stereo not shown) [Example 15, N^LEU -((p-(DIMETHYLAMINO)-PHENYL)THIOCARBAMOYL)A82846B] | 4 | 16 | 0.25 | > 64 | > 64 | 0.25 | 16 | 8 | > 128 | 24
CC(C)CC(C(=O)NC1C(=O)NC(CC(N)=O)C(=O)NC2C(=O)NC3C(=O)NC(C(=O)NC(C(=O)O)c4cc(O)cc(O)c4-c4cc3ccc4O)C(OC3CC(C)(N)C(O)C(C)O3)c3ccc(c(Cl)c3)Oc3cc2cc(c3OC2OC(CO)C(O)C(O)C2OC2CC(C)(N)C(O)C(C)O2)Oc2ccc(cc2Cl)C1O)N(C)C(=S)Nc1ccc(OCc2ccccc2)cc1 (stereo not shown) [Example 16, N^LEU -((p-(BENZYLOXY)PHENYL)-THIOCARBAMOYL)A82846B] | 0.5 | 4 | ≤ 0.06 | 64 | 8 | 0.125 | 1 | 1 | > 128 | 7
CCCCc1ccc(NC(=S)N(C)C(CC(C)C)C(=O)NC2C(=O)NC(CC(N)=O)C(=O)NC3C(=O)NC4C(=O)NC(C(=O)NC(C(=O)O)c5cc(O)cc(O)c5-c5cc4ccc5O)C(OC4CC(C)(N)C(O)C(C)O4)c4ccc(c(Cl)c4)Oc4cc3cc(c4OC3OC(CO)C(O)C(O)C3OC3CC(C)(N)C(O)C(C)O3)Oc3ccc(cc3Cl)C2O)cc1 (stereo not shown) [Example 17, N^LEU -((p-n-BUTYLPHENYL)-THIOCARBAMOYL)A82846B] | 1 | 2 | 0.25 | 32 | 4 | ≤ 0.06 | 1 | 2 | > 128 | 6.1
CCCCc1ccc(NC(=S)N(C)C(CC(C)C)C(=O)NC2C(=O)NC(CC(N)=O)C(=O)NC3C(=O)NC4C(=O)NC(C(=O)NC(C(=O)O)c5cc(O)cc(O)c5-c5cc4ccc5O)C(OC4CC(C)(N)C(O)C(C)O4)c4ccc(c(Cl)c4)Oc4cc3cc(c4OC3OC(CO)C(O)C(O)C3OC3CC(C)(NCc4ccc(Oc5ccccc5)cc4)C(O)C(C)O3)Oc3ccc(cc3Cl)C2O)cc1 (stereo not shown) [Example 18, N^LEU -((p-n-BUTYLPHENYL)-THIOCARBAMOYL)-N^DISACC -(p-PHENOXYBENZYL)A82846B] | 2 | 2 | 0.25 | 2 | 2 | 2 | 2 | 2 | 4.7 | 1.7
